A melting point compilation (Tetko et al.; mined from patent text by program, amines drawn as free bases though some values may be those of a salt)

`CCOC(=O)CCCC(=O)c1ccc(OCCCCCBr)c(CCC(=O)OCC)c1` gave a melting point of 48 to 49 °C.
Compound `Cc1cc(COc2nn(Cc3ccccc3)cc2CO)ccc1OCc1nc(-c2ccco2)oc1C` has a melting point of 91 to 92 °C.
Work on `CS(=O)(=O)Nc1cccc(Nc2nc(NC3CCCC3)c3nc[nH]c3n2)c1` yielded a melting point of 234 to 239 °C.
Compound `CC(=O)c1ccc(OCCCN2CCC(c3noc4cc(F)ccc34)CC2)cc1` has a melting point of 111 to 112 °C.
For `CCn1c(=O)n(OCc2ccccc2)c(=O)c2cc(F)c(N3CCCC3)nc21`, the melting point was 189 to 190 °C.
`COC(=O)Cc1ccc(NC(=O)Nc2ccccc2C)c(OC)c1` showed a melting point of 167 to 168 °C.
`O=C(O)C=Cc1cc(Cl)ccc1C(=O)O` showed a melting point of 200 to 202 °C.
In the case of `C(=C\c1nc(COc2ccc(CCn3ccnc3)cc2)co1)/c1ccccc1`, the melting point is reported as 165 to 166 °C.
In the case of `CC(C)C(=O)OC1c2nccnc2C(=O)N1c1ccc2ccc(Cl)nc2n1` (stereo unspecified), the melting point is reported as 260 to 262 °C.
`Cc1ccc(Nc2nc(C)cs2)nc1` showed a melting point of 212 to 214 °C.
With `OC1CSC(Oc2cncc(-c3ccc(Cl)nc3)c2)C(O)C1O` (stereo unspecified) the melting point was 211 °C.
Work on `O=C(Nc1c[nH]nc1C(=O)Nc1ccccc1)c1ccccn1` yielded a melting point of 281 to 282 °C.
In the case of `CCCCNC(=O)Oc1cccc(NC(=O)C=C(CCC)OC)c1`, the melting point is reported as 150 °C.
In the case of `CCCCn1c(C)c(C)cc(O)c1=O`, the melting point is reported as 112 to 116 °C.
Compound `CC(=O)NCCc1ccc(C(=O)c2cccc(F)c2)cc1` has a melting point of 78 °C.
With `Cc1cccc(NC(=O)NC2N=C(CO)c3cccc(C)c3N(CC(=O)N3CCCCCCC3)C2=O)c1` (stereo unspecified) the melting point was 214 to 216 °C.
With `COc1cc(COc2cccc(O)c2C)cc(OC)c1` the melting point was 63 to 69 °C.
For `CC(C)(OC(=O)CCc1nc(-c2ccc(Cl)cc2)co1)c1ccccc1`, the melting point was 94 to 95 °C.
In the case of `c1ccc(Nn2ccc3ccccc32)nc1`, the melting point is reported as 109 to 110 °C.
With `CCN(CC)C(=O)COc1nc(-c2ccccc2)nc2ccccc12` the melting point was 113 °C.
`COc1cc(N2CCC(N3CC[C@@H](O)C3)CC2)ccc1[N+](=O)[O-]` showed a melting point of 137 to 139 °C.
`Cn1nc(Nc2cc(-c3ccc4c(c3)NC(=O)C4)cn3ccnc23)cc1C(C)(C)O` showed a melting point of 180 to 182 °C.
In the case of `CCCCNC(=O)NC(=N)c1ccccc1`, the melting point is reported as 139 to 141 °C.
`CC1(C)C(=O)Oc2ccc3ccc(Cn4cncn4)cc3c21` showed a melting point of 136 to 137 °C.
In the case of `COC=CC(C)(C)C(=O)Nc1ccc(Cl)cc1`, the melting point is reported as 93 °C.
With `CC(C)C(OC(=O)/C=C/c1ccccc1)OC(=O)NC1(C(=O)O)CC1` (stereo unspecified) the melting point was 148 to 150 °C.
`CCOc1ccc(-c2ncc(C#N)cn2)cc1` showed a melting point of 153 °C.
`COc1cccc2cc(-c3ccc(OCCN4CCCC4)cc3)sc12` gave a melting point of 88 to 90 °C.
`CCSC(C)(C)C(=O)CC(=O)Nc1cc([N+](=O)[O-])ccc1OC` gave a melting point of 138 to 140 °C.
For `COC(=O)c1ccc(Cc2cn(C)c3ccc(CCNC(=O)N(C)C)cc23)c(OC)c1`, the melting point was 122 to 124 °C.
In the case of `O=C(O)CCc1oc(-n2cnc3ccccc32)nc1-c1ccc(Cl)cc1`, the melting point is reported as 217 to 218 °C.
In the case of `Cc1nn(-c2cccnc2)cc1I`, the melting point is reported as 131 °C.
For `CCOC(=O)COc1ccc(OCc2ccccc2)cc1C(Nc1ccc(C(N)=S)cc1)C(=O)OCC` (racemic), the melting point was 166 °C.
For `CCCN1CCN(C(=O)C(Cl)Cl)CC1`, the melting point was 88 °C.
In the case of `NCC(=O)N[C@H]1CC[C@H](O)CC1`, the melting point is reported as 110 to 114 °C.
In the case of `CCCOc1ccc(S(=O)(=O)N2CCN(C)CC2)cc1-c1cc2c([nH]1)c(=O)n(C)c(=O)n2CCC`, the melting point is reported as 198 °C.
`CCC(C(=O)N(C)C)n1cc(Cl)c(-c2ccccc2C)n1` (stereo unspecified) gave a melting point of 49.5 to 52 °C.
`CCOC(=O)[C@H]1CC(OC(C)=O)CN1S(=O)(=O)c1ccc(C)cc1` (stereo partly specified) showed a melting point of 82 to 83 °C.
`Cc1cc(S)n2nc(N)nc2n1` gave a melting point of over 300 °C.
`CC1CC(=O)c2c(ccc(F)c2Cl)N1` (single isomer, unassigned; (-)) gave a melting point of 117 to 119 °C.
In the case of `N#CC(c1ccc(Cl)c(Cl)c1)c1c(Cl)cc(N)cc1Cl` (stereo unspecified), the melting point is reported as 191 to 194 °C.
`Cc1ccc2c(c1C)OC(C(F)(F)F)C(C(=O)O)=C2` (stereo unspecified) showed a melting point of 245 to 247 °C.
`O=C(c1cc(O)c(O)cc1[N+](=O)[O-])N1CCC(N2CCCCC2)CC1` showed a melting point of 290 °C.
`CN(C)S(=O)(=O)c1cccc(Nc2ncc3cc4ccccc4n3n2)c1` showed a melting point of 191 to 193 °C.
In the case of `Cc1cc(N2C(=O)N(CCCCCCCCCSCCCC(F)(F)C(F)(F)F)C(C)(C)C2=O)ccc1NS(N)(=O)=O`, the melting point is reported as 102 to 104 °C.
Compound `Cc1[nH][nH]c(=O)c1Cc1ccc2ccccc2c1` has a melting point of 240 to 244 °C.
Work on `O=C(O)CN1C(=O)N(Cc2cccc([N+](=O)[O-])c2)C(=O)C1O` (stereo unspecified) yielded a melting point of 153 to 155 °C.
With `COc1ccc2c(c1OC)CC[C@H]2NC(C)=O` the melting point was 175 °C.
In the case of `CC(C)(Oc1ccc(Cl)cc1)C(=O)NCCO[N+](=O)[O-]`, the melting point is reported as 81 to 82 °C.
In the case of `CCC(CC)(CCCCS(N)(=O)=O)COc1nn2ncnc2cc1C`, the melting point is reported as 132 to 133 °C.
Work on `C[C@H](NC(=O)Cc1cccc(F)c1)C(=O)N[C@@H]1C(=O)Nc2ccccc2O[C@@H]1c1ccccc1` yielded a melting point of 130 to 140 °C.
Work on `CC(=Cc1ccccc1Cl)C(O)(Cn1cncn1)c1ccc(Cl)cc1` (stereo unspecified) yielded a melting point of 141 to 143 °C.
Work on `NC(=O)c1ccc(F)c2c1C=CCO2` yielded a melting point of 189 to 190 °C.
For `O=C(CCC(=O)N1CCC(c2ccc(Cl)cc2)CC1)c1ccc2c(c1)CCN(C1CCCCC1)CC2`, the melting point was 128 to 130 °C.
For `O=S(=O)(c1ccccc1)c1c(-c2ccc(Cl)cc2)[nH]c(Br)c1Br`, the melting point was over 200 °C.
Compound `COC(=O)c1ccc(S(C)(=O)=O)c(CBr)c1Cl` has a melting point of 77 to 78 °C.
With `Cc1nnc2n1-c1ccccc1C(c1ccc(Cl)cc1)=NN2Cc1ccc(NC=O)cc1` the melting point was 215 to 216 °C.
Work on `O=C(OCC1OC(Oc2ccc([N+](=O)[O-])cc2)C(OC(=O)c2ccccc2)C(OC(=O)c2ccccc2)C1O)c1ccccc1` (stereo unspecified) yielded a melting point of 180 to 181 °C.
For `CC(C)(C)OCC1C(=O)C(C)(C)C(=O)N1c1ccc(C#N)c(Cl)c1` (stereo unspecified), the melting point was 124 to 125 °C.
Compound `CCCc1nn(C)c2c(=O)n(CCCOc3ccc(OC(C)(C)C(=O)O)cc3)c(CC)nc12` has a melting point of 124 to 126 °C.
For `CCOc1nn(-c2ccc(C(F)(F)F)cn2)cc1CCCOc1ccc(OC)cc1CC(=O)O`, the melting point was 138 to 139 °C.
For `CCOC(C)OCC(O)CN1C(CO)=Cc2ccsc2S1(=O)=O` (stereo unspecified), the melting point was 95 to 97 °C.
Compound `Cc1cc(C)c(NC(=O)Nc2c(-c3ccccc3Cl)c3ccncc3n(C)c2=O)c(C)c1` has a melting point of 222 to 224 °C.
For `COc1ccc(-n2nc(C(C)(C)C)cc2NC(=O)c2cccc3cc(Oc4cc(NCCN(C)C)ncn4)ccc23)cc1`, the melting point was 116 to 117 °C.
Work on `CC(C)C(=O)NC1C=CC(CO)C1` (stereo unspecified) yielded a melting point of 80 to 81 °C.
With `CC1(C)Oc2cc(C#N)sc2[C@@H](N2CCCCC2=O)[C@@H]1O` (relative stereo) the melting point was 212 to 214 °C.
`CCCCCCCCCCCC(=O)OC1CC(c2ccccc2)N(O)C(c2ccccc2)C1` (stereo unspecified) showed a melting point of 89 to 90 °C.
In the case of `COc1cc2c(cc1OC)N(C)C(=O)CN=C2c1cccc(C(C)=O)c1`, the melting point is reported as 148 to 150 °C.
In the case of `CC(C)=C1C(=O)Nc2cc3[nH]c(-c4ccncc4)nc3cc21`, the melting point is reported as over 300 °C.
Compound `C#CCOc1cc(OCC=C)ccc1-c1nc2cnccc2[nH]1` has a melting point of 195 °C.
Compound `COCC(=O)c1ccc(Br)nc1` has a melting point of 110 to 112 °C.
Work on `O=C(O)CCCCCCCCCCCOc1ccccc1OCCCC(=O)O` yielded a melting point of 105 °C.
`CCCCCCCCCCCCCC=Cc1cc(C(=O)O)c[nH]1` gave a melting point of 90 to 96 °C.
With `O=c1[nH]c(CCCN2CCCC2)cc2c(O)cccc12` the melting point was 222 to 225 °C.
`CC(O)C(=O)c1ccc(F)cc1F` (stereo unspecified) showed a melting point of 49 to 51 °C.
For `COc1ccc2cc(C(C)(O)C(=O)O)ccc2c1` (stereo unspecified), the melting point was 150 to 152 °C.
Work on `COC(=O)c1cc(Oc2ccc([N+](=O)[O-])cc2)cc(Oc2ccc([N+](=O)[O-])cc2)c1` yielded a melting point of 180 to 182 °C.
Work on `CN1CC[C@H](c2ccc(Cl)cc2)[C@@H](O)C1` (racemic) yielded a melting point of 99 to 100 °C.
`COCC(=O)Nc1c(C(O)(C(F)(F)F)C(F)(F)F)ccc2ccccc12` showed a melting point of 120 to 121 °C.
In the case of `C=CCN1CCC(c2cc(-c3ccc(Cl)cc3)[nH]n2)CC1`, the melting point is reported as 165 to 167 °C.
`CC(=O)N1CCN(CC(=O)OC2c3ccccc3C(=O)N2c2ccc3ccc(Cl)nc3n2)CC1` (stereo unspecified) showed a melting point of 192 °C.
For `CSc1nn2c(N)cc(C)nc2c1S(=O)(=O)c1cccs1`, the melting point was over 230 °C.
`Cc1cc(C)nc(NC(N)=Nc2ccc(Cl)cc2)n1` showed a melting point of 203 °C.
`CCC1(CCCN2CCN(c3cccc(Cl)c3)CC2)C(=O)Nc2ccc(Cl)cc21` (stereo unspecified) showed a melting point of 117 to 119 °C.
Work on `C[C@H]1CC[C@@H](OC(=O)c2nc(Cl)n3c2[C@@H]2CCCN2C(=O)c2ccccc2-3)CC1` yielded a melting point of 176 to 177 °C.
`O=S1(=O)CCCS(=O)(=O)N1F` gave a melting point of 171 to 172 °C.
With `CC(C)(C)NC(=O)c1cc(Br)c(Br)s1` the melting point was 190 °C.
For `O=C(c1ccccc1)C(CCCCl)c1ccccc1` (stereo unspecified), the melting point was 72 to 74 °C.
In the case of `C=CCN1CCN(C2N=C(N)OC2C)CC1` (stereo unspecified), the melting point is reported as 99 °C.
For `CCOP(=O)(OCC)C(CCc1cc(C)nc2c(I)c(-c3ccccc3)nn12)P(=O)(OCC)OCC`, the melting point was 81 to 82 °C.
`CCn1c(=O)c2[nH]c(/C=C/c3ccc(OC)c(OC)c3)nc2n(CC)c1=O` showed a melting point of 208 to 211 °C.
With `CCOc1ccc(C2=NN(c3ccc(C(=O)N4CCSCC4)cc3)C(=O)[C@H]3CC=CC[C@@H]23)cc1OCC` (relative stereo) the melting point was 104 to 106 °C.
`Cc1[nH]c(-c2ccccc2)nc1C(=O)C=CN(C)C` gave a melting point of 218 to 222 °C.
In the case of `COc1ccc(C[C@H]2[C@H](CO)CCCN2C)cc1` (relative stereo), the melting point is reported as 66 to 68 °C.
`CCc1c(CC(=O)NCCCCCCNC(=O)Cc2ccc(OC)cc2)ccc(OC)c1OC` showed a melting point of 123 to 125 °C.
For `O=[N+]([O-])c1ccc(-c2cc3c(Oc4ccc(Cl)cc4)cncc3s2)cc1`, the melting point was 193 to 195 °C.
Compound `CC(C)(C)C(=O)ON=C(N)CN1C(=O)C2(COc3cc4c(cc32)OCO4)c2ccccc21` (stereo unspecified) has a melting point of 183 to 185 °C.
For `O=C(c1ccccc1)N1CCC2(CCc3c2[nH]c2ccccc32)CC1`, the melting point was 231 to 232 °C.
`C/C(=C\c1ccc(O)cc1)c1ccc2c(c1)C(C)(C)CCC2(C)C` gave a melting point of 138 to 140 °C.
With `CCc1[nH]n(C2CCCC2)c2nc(Cc3ccc(OC)c(OC)c3)nc(=O)c1-2` the melting point was 148 to 149 °C.
For `CC1(CNC(=O)OC(C)(C)C)CN(C(c2ccccc2)c2ccccc2)C1`, the melting point was 106 to 107 °C.
